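How tested: cells in 96-well plates exposed to compound for 48 hours at five concentrations. The concentration for 50% growth inhibition is given as GI50.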 Active and inactive are the calls of the source. Cut-off read from the data, not from the text of the source: active = GI50 up to about 1.1 µM and inactive = higher.
Experiments:
Assay in all cases: NCI-60 cell line screen, 48 h
[1] = tested on: A498
[2] = tested on: CAKI-1
[3] = tested on: HL-60
[4] = tested on: HOP-62
[5] = tested on: M14
[6] = tested on: MCF7
[7] = tested on: MDA-MB-435
[8] = tested on: MDA-N
[9] = tested on: NCI-H23
[10] = tested on: OVCAR-4
[11] = tested on: RXF 393
[12] = tested on: SF-268
[13] = tested on: SF-295
[14] = tested on: SK-MEL-28
[15] = tested on: SK-MEL-2
[16] = tested on: SNB-19
[17] = tested on: SR
[18] = tested on: UACC-62
[19] = tested on: UO-31

SMILES | GI50 [1] | GI50 [2] | GI50 [3] | GI50 [4] | GI50 [5] | GI50 [6] | GI50 [7] | GI50 [8] | GI50 [9] | GI50 [10] | GI50 [11] | GI50 [12] | GI50 [13] | GI50 [14] | GI50 [15] | GI50 [16] | GI50 [17] | GI50 [18] | GI50 [19]
O=C1/C(=C/c2ccc(O)cc2)CCCC1CN1CCCCC1 (stereo not drawn) | 6.84 µM (inactive) | 2.56 µM (inactive) | 0.483 µM (active) | 15.7 µM (inactive) | 2.94 µM (inactive) | 1.69 µM (inactive) | 7.28 µM (inactive) | 3.47 µM (inactive) | 5.12 µM (inactive) | 12.9 µM (inactive) | 13.7 µM (inactive) | 3.44 µM (inactive) | 16.1 µM (inactive) | 5.43 µM (inactive) | 11.2 µM (inactive) | 17.6 µM (inactive) | 1.39 µM (inactive) | 1.83 µM (inactive) | 2.51 µM (inactive)
O=C1C=C(c2ccccc2)O/C1=C/C(=O)c1ccc(Cl)cc1 | 23.4 µM (inactive) | 14 µM (inactive) | 1.66 µM (inactive) | 30.5 µM (inactive) | 19 µM (inactive) | 16.5 µM (inactive) | 15.2 µM (inactive) | 16.1 µM (inactive) | > 10 µM (inactive) | 15.6 µM (inactive) | 18.9 µM (inactive) | 23.9 µM (inactive) | – | 18 µM (inactive) | – | 35.5 µM (inactive) | 2.93 µM (inactive) | 14 µM (inactive) | 23.3 µM (inactive)
N#Cc1c(Cl)cc(C#N)n2c1nc1ccccc12 | 24.5 µM (inactive) | 5.64 µM (inactive) | 1.18 µM (inactive) | 21.6 µM (inactive) | 9.71 µM (inactive) | 9.2 µM (inactive) | 11.7 µM (inactive) | 10.6 µM (inactive) | 13.2 µM (inactive) | 13.8 µM (inactive) | 14.2 µM (inactive) | 5.6 µM (inactive) | 15.3 µM (inactive) | 13.3 µM (inactive) | 17 µM (inactive) | > 53.1 µM (inactive) | 0.532 µM (active) | 18.3 µM (inactive) | 7.85 µM (inactive)
O=C(Nn1c(-c2ccccc2)nc2ccccc2c1=O)c1ccc([N+](=O)[O-])cc1 | 46.7 µM (inactive) | – | > 100 µM (inactive) | > 100 µM (inactive) | > 100 µM (inactive) | 58.7 µM (inactive) | > 100 µM (inactive) | > 100 µM (inactive) | > 100 µM (inactive) | > 100 µM (inactive) | 49.2 µM (inactive) | > 100 µM (inactive) | > 100 µM (inactive) | 72.3 µM (inactive) | – | > 100 µM (inactive) | > 100 µM (inactive) | 45.2 µM (inactive) | > 100 µM (inactive)
COc1cccc(N2C(=O)C3CC(CC(C)(C)C)c4c([nH]c5ccccc45)C3C2=O)c1 (stereo not drawn) | > 10 µM (inactive) | > 10 µM (inactive) | > 10 µM (inactive) | 9.16 µM (inactive) | 5.82 µM (inactive) | 8.55 µM (inactive) | > 10 µM (inactive) | > 10 µM (inactive) | > 10 µM (inactive) | 2.62 µM (inactive) | > 10 µM (inactive) | > 10 µM (inactive) | > 10 µM (inactive) | > 10 µM (inactive) | > 10 µM (inactive) | > 10 µM (inactive) | 1.48 µM (inactive) | > 10 µM (inactive) | –
CN(C)C(Cc1c[nH]cn1)C(=O)N1CCCC1C(N)=O (stereo not drawn) | 22.9 µM (inactive) | > 100 µM (inactive) | > 100 µM (inactive) | > 100 µM (inactive) | > 100 µM (inactive) | > 100 µM (inactive) | > 100 µM (inactive) | > 100 µM (inactive) | > 100 µM (inactive) | > 100 µM (inactive) | > 100 µM (inactive) | > 100 µM (inactive) | > 100 µM (inactive) | > 100 µM (inactive) | – | > 100 µM (inactive) | > 100 µM (inactive) | > 100 µM (inactive) | > 100 µM (inactive)
CC1OC(c2ccc3c(c2O)C(=O)C2=C(C3=O)C3(O)C(=O)CC(C)(O)CC3(O)C=C2)CC(O)C1O (stereo not drawn) | 18.2 µM (inactive) | 7.28 µM (inactive) | 1.98 µM (inactive) | 26.8 µM (inactive) | 16.1 µM (inactive) | 2.79 µM (inactive) | 10.6 µM (inactive) | 3.23 µM (inactive) | 20.6 µM (inactive) | 13.7 µM (inactive) | 11.4 µM (inactive) | 21.2 µM (inactive) | 16.6 µM (inactive) | 15.7 µM (inactive) | 20.5 µM (inactive) | 18.4 µM (inactive) | 10.2 µM (inactive) | 14.9 µM (inactive) | 17.1 µM (inactive)
C=C1CCC(O)C/C1=C/C=C1\CCCC2(C)C1CCC2C(C)CCCC(C)C (stereo not drawn) | 21.3 µM (inactive) | 19.8 µM (inactive) | 23.2 µM (inactive) | 19.5 µM (inactive) | 18 µM (inactive) | 12.9 µM (inactive) | 16.3 µM (inactive) | 18 µM (inactive) | 18.5 µM (inactive) | 18.1 µM (inactive) | 18.5 µM (inactive) | 23 µM (inactive) | 19.6 µM (inactive) | 16.6 µM (inactive) | 18.6 µM (inactive) | 19.1 µM (inactive) | 18.5 µM (inactive) | 18.8 µM (inactive) | 14.6 µM (inactive)
O=C(O)c1ccc(CNCc2ccccc2)cc1 | > 100 µM (inactive) | > 100 µM (inactive) | > 100 µM (inactive) | > 100 µM (inactive) | > 100 µM (inactive) | > 100 µM (inactive) | > 100 µM (inactive) | > 100 µM (inactive) | > 100 µM (inactive) | > 100 µM (inactive) | > 100 µM (inactive) | > 100 µM (inactive) | > 100 µM (inactive) | > 100 µM (inactive) | > 100 µM (inactive) | > 100 µM (inactive) | > 100 µM (inactive) | > 100 µM (inactive) | > 100 µM (inactive)
Cc1ccc(/N=N/c2cc(=O)[nH]c(=O)[nH]2)cc1C | 18.4 µM (inactive) | – | 3.01 µM (inactive) | 17.7 µM (inactive) | 14.2 µM (inactive) | 12.3 µM (inactive) | 11.2 µM (inactive) | 12.2 µM (inactive) | – | 13.9 µM (inactive) | 5.04 µM (inactive) | 19.8 µM (inactive) | 15.3 µM (inactive) | 15.6 µM (inactive) | – | 17.2 µM (inactive) | 3.6 µM (inactive) | – | 17.9 µM (inactive)
O=C1CC(C(O)(C(F)(F)F)C(F)(F)Cl)CCC1C(O)(C(F)(F)F)C(F)(F)Cl (stereo not drawn) | 6.58 µM (inactive) | > 10 µM (inactive) | > 10 µM (inactive) | > 10 µM (inactive) | > 10 µM (inactive) | 8.71 µM (inactive) | > 10 µM (inactive) | > 10 µM (inactive) | 9.55 µM (inactive) | > 10 µM (inactive) | 3.49 µM (inactive) | > 10 µM (inactive) | 7.5 µM (inactive) | > 10 µM (inactive) | 3.25 µM (inactive) | > 10 µM (inactive) | > 10 µM (inactive) | 7.55 µM (inactive) | –
O=C1C[S+]([O-])C23c4cc5ccccc5n4CCC2CCCN13 (stereo not drawn) | > 100 µM (inactive) | > 100 µM (inactive) | > 100 µM (inactive) | > 100 µM (inactive) | > 100 µM (inactive) | > 100 µM (inactive) | > 100 µM (inactive) | > 100 µM (inactive) | > 100 µM (inactive) | > 100 µM (inactive) | > 100 µM (inactive) | > 100 µM (inactive) | > 100 µM (inactive) | > 100 µM (inactive) | > 100 µM (inactive) | > 100 µM (inactive) | > 100 µM (inactive) | > 100 µM (inactive) | –
N#Cc1c(O)n(-c2ccccc2)c(=O)c2c(N)n[nH]c12 | > 100 µM (inactive) | 95.1 µM (inactive) | > 100 µM (inactive) | – | > 100 µM (inactive) | > 100 µM (inactive) | > 100 µM (inactive) | > 100 µM (inactive) | > 100 µM (inactive) | > 100 µM (inactive) | > 100 µM (inactive) | > 100 µM (inactive) | – | > 100 µM (inactive) | > 100 µM (inactive) | > 100 µM (inactive) | > 100 µM (inactive) | 31.3 µM (inactive) | > 100 µM (inactive)
O=c1[nH]c(=O)n(C2OC(CO)C(O)C2O)c2ccsc12 (stereo not drawn) | > 100 µM (inactive) | > 100 µM (inactive) | > 100 µM (inactive) | > 100 µM (inactive) | > 100 µM (inactive) | > 100 µM (inactive) | > 100 µM (inactive) | > 100 µM (inactive) | > 100 µM (inactive) | > 100 µM (inactive) | > 100 µM (inactive) | > 100 µM (inactive) | > 100 µM (inactive) | > 100 µM (inactive) | > 100 µM (inactive) | – | > 100 µM (inactive) | – | > 100 µM (inactive)
COc1cc2c(cc1OCc1ccccc1)NC(=O)[C@@H]1C[C@@H](O)CN1C2=O | > 100 µM (inactive) | > 100 µM (inactive) | – | 47.6 µM (inactive) | > 100 µM (inactive) | > 100 µM (inactive) | > 100 µM (inactive) | > 100 µM (inactive) | > 100 µM (inactive) | > 100 µM (inactive) | > 100 µM (inactive) | > 100 µM (inactive) | > 100 µM (inactive) | > 100 µM (inactive) | > 100 µM (inactive) | > 100 µM (inactive) | 47 µM (inactive) | > 100 µM (inactive) | > 100 µM (inactive)

— ChEMBL document CHEMBL1201862, “PubChem BioAssay data set” (2004)
